The record followed here is patent publication US10004732B2 (Novartis AG, priority 2014, dated 2018).

A word on the IC50: it is the midpoint of a concentration-inhibition curve.

The target in series [1] is T1, PI 3-kinase gamma (Homo sapiens, UniProt P48736). Briefly: Cellular U937 AKT assay K1 (MSD). As to conditions: U937 cells, K1 format; read-out: Assay K1 PI3Kγ IC50. It counts as cell-based.
Series [2] concerns the target mTOR (Homo sapiens, UniProt P42345). In words: Lanthascreen kinase binding assay, assay G. As to conditions: read-out: Assay G mTOR IC50. (Time-resolved FRET reads energy transfer from a long-lived donor to a nearby acceptor.)
Procedure: Lanthascreen™ Kinase Binding Assay for mTOR (G)
Binding of an inhibitor to the kinase competes for binding with the tracer, resulting in a loss of FRET.
50 nL of compound dilutions were dispensed onto white 384-well small volume polystyrene plate.
Series [3] deals with Vps34 (Homo sapiens, UniProt Q8NEB9). Briefly: Kinase Glo Luminescent Kinase Assay (Kglo), assay C. In kind it is biochemical. To be noted: read-out: Assay C VPS34 IC50. For orientation: Kinase-Glo reads ATP consumption through a luciferase reaction.
Vps34, sequence (Q8NEB9 whole entry, species assumed): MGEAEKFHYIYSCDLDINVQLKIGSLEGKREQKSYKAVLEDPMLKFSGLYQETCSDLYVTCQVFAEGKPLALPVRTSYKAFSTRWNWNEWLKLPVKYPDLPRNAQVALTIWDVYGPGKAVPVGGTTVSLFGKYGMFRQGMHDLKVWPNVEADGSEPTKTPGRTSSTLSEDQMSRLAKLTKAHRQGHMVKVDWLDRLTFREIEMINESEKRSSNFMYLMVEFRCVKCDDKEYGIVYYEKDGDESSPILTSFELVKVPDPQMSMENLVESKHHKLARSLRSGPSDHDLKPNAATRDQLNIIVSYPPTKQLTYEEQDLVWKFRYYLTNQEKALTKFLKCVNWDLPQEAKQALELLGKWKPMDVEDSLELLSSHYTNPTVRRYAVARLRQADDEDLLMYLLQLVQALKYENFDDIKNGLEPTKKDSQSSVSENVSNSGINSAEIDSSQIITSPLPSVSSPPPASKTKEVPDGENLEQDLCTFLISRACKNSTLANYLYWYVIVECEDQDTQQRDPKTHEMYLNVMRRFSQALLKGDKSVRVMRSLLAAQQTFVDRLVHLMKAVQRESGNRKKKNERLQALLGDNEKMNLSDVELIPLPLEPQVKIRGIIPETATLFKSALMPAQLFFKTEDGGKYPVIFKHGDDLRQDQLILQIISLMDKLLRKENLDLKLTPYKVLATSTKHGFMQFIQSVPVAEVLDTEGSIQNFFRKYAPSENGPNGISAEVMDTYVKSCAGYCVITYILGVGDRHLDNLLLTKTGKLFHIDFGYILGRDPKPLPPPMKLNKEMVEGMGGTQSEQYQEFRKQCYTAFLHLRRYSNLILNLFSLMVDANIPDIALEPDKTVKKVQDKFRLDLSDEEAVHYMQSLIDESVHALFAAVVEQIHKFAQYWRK
Series [4] concerns the target PI 3-kinase alpha (Homo sapiens, UniProt P42336). Briefly: Kinase Glo Luminescent Kinase Assay (Kglo), assay A. As to conditions: read-out: Assay A PI3Kα IC50. It counts as biochemical.
Series [5] has as its target PI 3-kinase delta (Homo sapiens, UniProt O00329). Briefly: TR-FRET Adapta assay, assay F. To be noted: read-out: Assay F PI3Kδ IC50.
For series [6], the target named is PI 3-kinase beta (Homo sapiens, UniProt P42338). In words: Kinase Glo Luminescent Kinase Assay (Kglo), assay B. In kind it is biochemical. To be noted: read-out: Assay B PI3Kβ IC50.
PI 3-kinase beta, sequence (P42338 whole entry): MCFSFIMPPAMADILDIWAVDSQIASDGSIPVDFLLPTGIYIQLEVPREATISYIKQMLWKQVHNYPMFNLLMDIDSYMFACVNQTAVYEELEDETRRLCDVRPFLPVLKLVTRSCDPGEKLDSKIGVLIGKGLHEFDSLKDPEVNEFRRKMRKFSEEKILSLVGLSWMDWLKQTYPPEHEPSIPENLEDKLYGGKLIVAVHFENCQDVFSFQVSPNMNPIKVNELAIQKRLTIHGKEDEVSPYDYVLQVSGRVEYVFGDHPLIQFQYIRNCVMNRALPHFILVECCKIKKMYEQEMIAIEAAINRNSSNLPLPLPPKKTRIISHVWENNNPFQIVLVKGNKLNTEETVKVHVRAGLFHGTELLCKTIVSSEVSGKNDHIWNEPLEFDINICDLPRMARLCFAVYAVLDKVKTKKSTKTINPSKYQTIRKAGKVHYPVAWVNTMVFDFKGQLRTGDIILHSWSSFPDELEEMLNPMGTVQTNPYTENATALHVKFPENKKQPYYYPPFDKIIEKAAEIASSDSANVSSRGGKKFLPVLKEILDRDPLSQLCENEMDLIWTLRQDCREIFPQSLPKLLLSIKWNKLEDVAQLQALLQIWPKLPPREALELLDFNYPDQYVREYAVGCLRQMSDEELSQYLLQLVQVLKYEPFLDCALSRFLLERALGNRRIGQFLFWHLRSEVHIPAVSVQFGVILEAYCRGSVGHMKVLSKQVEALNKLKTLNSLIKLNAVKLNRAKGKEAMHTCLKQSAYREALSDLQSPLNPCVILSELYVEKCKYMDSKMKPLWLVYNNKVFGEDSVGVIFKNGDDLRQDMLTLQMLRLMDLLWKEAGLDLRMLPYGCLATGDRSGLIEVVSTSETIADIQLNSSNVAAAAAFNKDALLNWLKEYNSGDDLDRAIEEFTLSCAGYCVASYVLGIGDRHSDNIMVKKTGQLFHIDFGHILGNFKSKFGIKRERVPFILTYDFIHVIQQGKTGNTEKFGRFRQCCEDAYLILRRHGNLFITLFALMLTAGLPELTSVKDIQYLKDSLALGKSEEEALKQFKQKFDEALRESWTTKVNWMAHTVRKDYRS
PI 3-kinase beta, sequence (P27986 461-568 partner): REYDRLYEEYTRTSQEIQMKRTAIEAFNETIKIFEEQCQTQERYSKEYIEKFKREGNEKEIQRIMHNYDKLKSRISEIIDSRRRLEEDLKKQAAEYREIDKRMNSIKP
In series [7] the test system is IL-8-induced neutrophil shape change in human whole blood. In words: Whole blood neutrophil shape change assay (L). It counts as cell-based. To be noted: Homo sapiens, Neutrophil, IL-8, human whole blood, read-out: Assay L WBSC IC50.
Procedure: Whole Blood Neutrophil Shape Change Assay (L)
IL-8 was made up to 2 μM stocks in 0.1% bovine serum albumin/PBS and stored at −80° C. On the day IL-8 was diluted in PBS (phosphate buffered saline) 10 minutes before use. IL-8 was used at final concentration of 2 nM and a concentration range from 0.003 to 200 nM for the donor dose response curve.
Assay fixative solution was prepared fresh each day from 10× concentrated CellFIX™ solution diluted 1:10 in sterile distilled water and then 1:4 with PBS. Assay fixative solution was kept on ice prior to use.
A 10× lysis buffer was prepared in advance by dissolving 20.75 g NH4Cl and 2.5 g KHCO3 in 250 ml sterile H2O. This 10× lysis buffer was filtered under sterile conditions and stored for up to two weeks at 4° C. On the day a 1× lysis solution was prepared with sterile distilled H2O and kept on ice prior to use.
The test compounds were prepared as 10 mM stock solutions in 100% DMSO and were stored at 4° C. Once in use for an assay 10 mM stock compounds were thawed and stored at RT protected from light. Compound dilutions were prepared fresh on the day. The first series of dilutions in 100% DMSO were done first thing in the morning. Only once blood had been collected and arrived in laboratory was the next set of dilutions into PBS carried out (1:10 PBS, 10% DMSO). This limited the exposure of diluted compound to plastic and made sure the exposure timing was consistent between assays.
Compound dilutions in 100% DMSO were prepared as described previously. Human whole blood was collected in K2 EDTA Vacutainers. Once blood was in the laboratory, compound dilutions into PBS were carried out as described previously and depicted in Table 1.
The outer wells of the deep well assay plate were filled with 1200 μl of sterile distilled H2O in an effort to limit edge effects (rows A1-H1, A1-A12, A12-H12).
An IL-8 dose response was determined for each blood donor examined, to monitor the donor response to IL-8. At this step in assay preparation for the IL-8 dose response samples 10 μl of PBS was added to designated wells. In addition the assay window without DMSO was also assessed each day. For such samples at this step in assay preparation 10 μl of PBS was added in the place of 10% DMSO.
Lids were placed on the 96 well plates and samples were incubated for 15 minutes at 37° C. in a water-bath.
Following the compound pre-incubation 10× final IL-8 was added to appropriate wells (10 μl of 20 nM working stock IL-8, final IL-8 concentration in blood=2 nM) and 10 μl of PBS was added to the un-stimulated controls. 10× final dose response range IL-8 was also added to designated wells (final concentration range on assay plate was 200 nM to 0.0005 nM, 1:5 serial dilution in PBS). The IL-8 and PBS were added to appropriate wells across all assay plates in the same sequence as the blood to compound addition. […] Samples were incubated for 5 minutes at 37° C. in a water-bath. Following the incubation sample plates were transferred to ice where 250 μl of chilled Assay Fixative Buffer was added promptly to all wells.
Samples were incubated on ice for 7 minutes (no mixing). […] Once added samples were mixed once and incubated on ice for 30 minutes to achieve uniform red blood cells lysis. After lysis, 200 μl of sample was transferred to a 96 well microplate on ice. […] Granulocytes were identified based on differential side scatter (SSC) and forward scatter (FSC) characteristics.
Series [8] in a line: Microsomal clearance assay (M). As to conditions: intrinsic clearance in rat liver microsomes.
Procedure: The experiments were performed in 96-well glass plates at 37° C. on an automated Tecan EVO platform. Test compounds at a concentration of 10 mM in pure DMSO were diluted 1:1000 in water to 10 μM. […] Reactions were initiated by the addition of 150 μL of a cofactor solution containing 2 mM NADPH.
Series [9] addresses T1, PI 3-kinase gamma. In words: TR-FRET Adapta assay, assay E. It counts as biochemical. To be noted: read-out: Assay E PI3Kγ IC50.
Series [10] deals with PI 4-kinase beta (Homo sapiens, UniProt Q9UBF8). Briefly: Kinase Glo Luminescent Kinase Assay (Kglo), assay D. To be noted: read-out: Assay D PI4Kβ IC50. It counts as biochemical.
PI 4-kinase beta, sequence (Q9UBF8 whole entry): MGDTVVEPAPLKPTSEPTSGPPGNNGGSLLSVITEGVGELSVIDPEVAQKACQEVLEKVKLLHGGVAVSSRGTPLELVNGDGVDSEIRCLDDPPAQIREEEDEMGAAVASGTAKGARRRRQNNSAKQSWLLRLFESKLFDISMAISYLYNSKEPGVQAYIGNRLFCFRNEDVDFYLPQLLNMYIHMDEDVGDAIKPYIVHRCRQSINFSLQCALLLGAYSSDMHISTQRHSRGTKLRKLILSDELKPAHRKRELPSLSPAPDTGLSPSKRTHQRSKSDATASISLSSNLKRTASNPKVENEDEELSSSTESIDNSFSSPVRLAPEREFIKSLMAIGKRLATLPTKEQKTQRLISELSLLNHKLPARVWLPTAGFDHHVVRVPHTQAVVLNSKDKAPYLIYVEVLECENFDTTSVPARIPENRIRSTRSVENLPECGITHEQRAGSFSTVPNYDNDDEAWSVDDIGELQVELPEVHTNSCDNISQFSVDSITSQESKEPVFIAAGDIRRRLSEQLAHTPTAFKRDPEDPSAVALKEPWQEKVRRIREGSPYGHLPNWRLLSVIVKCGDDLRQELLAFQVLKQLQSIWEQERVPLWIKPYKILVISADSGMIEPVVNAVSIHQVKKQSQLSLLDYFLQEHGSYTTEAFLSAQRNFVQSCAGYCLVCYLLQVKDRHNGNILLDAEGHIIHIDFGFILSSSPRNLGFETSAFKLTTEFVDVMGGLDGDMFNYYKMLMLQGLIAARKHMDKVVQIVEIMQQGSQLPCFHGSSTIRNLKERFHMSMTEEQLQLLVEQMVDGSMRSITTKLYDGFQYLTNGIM

PI 3-kinase alpha, sequence (P42336 whole entry): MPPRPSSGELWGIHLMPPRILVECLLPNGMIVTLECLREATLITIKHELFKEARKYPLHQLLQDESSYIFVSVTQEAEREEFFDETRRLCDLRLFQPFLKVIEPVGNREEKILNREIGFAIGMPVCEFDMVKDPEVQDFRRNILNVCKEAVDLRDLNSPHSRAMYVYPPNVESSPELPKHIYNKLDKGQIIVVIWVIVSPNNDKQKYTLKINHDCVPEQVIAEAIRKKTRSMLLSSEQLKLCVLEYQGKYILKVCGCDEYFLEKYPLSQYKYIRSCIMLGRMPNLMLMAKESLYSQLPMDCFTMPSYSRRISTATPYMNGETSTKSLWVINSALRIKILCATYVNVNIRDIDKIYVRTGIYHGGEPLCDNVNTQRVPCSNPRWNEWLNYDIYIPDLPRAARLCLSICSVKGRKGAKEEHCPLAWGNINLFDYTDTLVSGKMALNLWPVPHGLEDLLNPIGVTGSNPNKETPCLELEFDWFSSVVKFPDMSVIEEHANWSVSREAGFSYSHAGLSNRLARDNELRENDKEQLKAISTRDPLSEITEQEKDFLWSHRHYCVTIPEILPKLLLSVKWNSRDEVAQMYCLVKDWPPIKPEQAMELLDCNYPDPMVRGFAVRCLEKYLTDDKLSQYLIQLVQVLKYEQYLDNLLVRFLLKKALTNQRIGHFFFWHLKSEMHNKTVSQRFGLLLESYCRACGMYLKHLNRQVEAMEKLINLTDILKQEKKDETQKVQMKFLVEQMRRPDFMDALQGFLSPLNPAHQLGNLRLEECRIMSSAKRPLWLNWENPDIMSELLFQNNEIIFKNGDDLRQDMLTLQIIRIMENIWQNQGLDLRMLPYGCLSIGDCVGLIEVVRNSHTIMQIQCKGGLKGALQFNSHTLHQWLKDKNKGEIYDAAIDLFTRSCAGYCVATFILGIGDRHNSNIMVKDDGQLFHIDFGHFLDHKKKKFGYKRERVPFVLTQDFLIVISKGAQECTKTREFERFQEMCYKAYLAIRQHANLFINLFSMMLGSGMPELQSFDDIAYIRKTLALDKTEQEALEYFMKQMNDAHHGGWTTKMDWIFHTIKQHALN
PI 3-kinase delta, sequence (O00329 whole entry): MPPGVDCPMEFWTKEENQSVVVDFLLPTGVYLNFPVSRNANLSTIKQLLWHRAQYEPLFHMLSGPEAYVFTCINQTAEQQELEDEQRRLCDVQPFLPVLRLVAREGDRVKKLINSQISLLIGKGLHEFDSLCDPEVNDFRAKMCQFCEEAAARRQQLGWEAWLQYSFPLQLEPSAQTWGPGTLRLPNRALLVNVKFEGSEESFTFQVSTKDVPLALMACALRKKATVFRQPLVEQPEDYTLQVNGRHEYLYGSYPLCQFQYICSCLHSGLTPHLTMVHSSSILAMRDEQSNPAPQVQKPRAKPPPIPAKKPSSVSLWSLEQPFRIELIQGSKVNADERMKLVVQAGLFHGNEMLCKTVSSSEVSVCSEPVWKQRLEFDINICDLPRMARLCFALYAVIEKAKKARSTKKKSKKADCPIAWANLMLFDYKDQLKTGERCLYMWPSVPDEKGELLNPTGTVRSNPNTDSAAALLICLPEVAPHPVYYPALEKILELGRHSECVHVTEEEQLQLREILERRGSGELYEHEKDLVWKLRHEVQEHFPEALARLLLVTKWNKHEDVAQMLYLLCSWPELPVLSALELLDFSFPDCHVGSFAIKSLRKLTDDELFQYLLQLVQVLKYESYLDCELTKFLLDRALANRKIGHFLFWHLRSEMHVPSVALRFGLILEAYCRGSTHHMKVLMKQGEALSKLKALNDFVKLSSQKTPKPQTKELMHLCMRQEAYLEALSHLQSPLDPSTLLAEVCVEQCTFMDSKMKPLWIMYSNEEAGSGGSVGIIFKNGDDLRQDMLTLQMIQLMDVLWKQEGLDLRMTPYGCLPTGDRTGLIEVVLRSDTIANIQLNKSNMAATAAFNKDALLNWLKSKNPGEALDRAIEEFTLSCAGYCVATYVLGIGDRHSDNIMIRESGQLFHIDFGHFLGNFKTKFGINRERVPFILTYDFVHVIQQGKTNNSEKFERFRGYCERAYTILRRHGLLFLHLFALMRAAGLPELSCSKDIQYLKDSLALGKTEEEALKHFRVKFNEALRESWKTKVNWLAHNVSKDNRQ
PI 3-kinase delta, sequence (P27986 461-568 partner): as the sequence (P27986 461-568 partner) above

Consider `Cc1ccc(S(=O)(=O)NCC2(O)CC2)cc1-c1cnc(N)c(-n2cncn2)n1` [Example 28, 3-(5-Amino-6-[1,2,4]triazol-1-yl-pyrazin-2-yl)-N-(1-hydroxy-cyclopropylmethyl)-4-methyl-benzenesulfonamide], for which the half-maximal inhibitory concentration (IC50) was 280 nM in [1]; above 9100 nM in series [2]; above 9100 nM in [3]; 680 nM in series [4]; 560 nM in series [5]; 4300 nM in [6]. The values for the IC50 in series [7], in series [9] and in series [10] were 759 nM, 26 nM and 8900 nM, respectively. In addition, the “Assay M RLM CI(int)” value in [8] turned out to be 34 µL/min/mg.
Take `Cc1ccc(S(=O)(=O)NCC(F)F)cc1-c1cnc(N)c(-n2cncn2)n1` [Example 34, 3-(5-Amino-6-[1,2,4]triazol-1-yl-pyrazin-2-yl)-N-(2,2-difluoro-ethyl)-4-methyl-benzenesulfonamide]: the IC50 was 137 nM in series [1]; 2500 nM in series [2]; above 10000 nM in series [3]; 700 nM in series [4]; 2900 nM in series [5]; 2500 nM in series [6]. Besides, the results for the 50% inhibitory concentration (IC50) in series [7], in [9] and in series [10] were 805 nM, 74 nM and 3800 nM, respectively. Also, in series [8], the “Assay M RLM CI(int)” value came out at 52 µL/min/mg.
For the molecule `Cc1ccc(S(=O)(=O)NCC(=O)C(C)(C)C)cc1-c1cnc(N)c(-n2cncn2)n1` [Example 36, 3-(5-Amino-6-[1,2,4]triazol-1-yl-pyrazin-2-yl)-N-(3,3-dimethyl-2-oxo-butyl)-4-methyl-benzenesulfonamide], the IC50 was 51 nM in series [1]; 250 nM in [2]; above 10000 nM in [3]; 160 nM in series [4]; 110 nM in series [5]; 850 nM in [6]. Also, the IC50 in [7] is 478 nM; in series [9], 17 nM; in series [10], 8000 nM. Further, the “Assay M RLM CI(int)” value in [8] was found to be 710 µL/min/mg.
Consider `Cc1cc(C)n(-c2nc(-c3cc(S(=O)(=O)NCC(C)(C)O)ccc3C)cnc2N)n1` [Example 48, 3-(5-Amino-6-(3,5-dimethyl-1H-pyrazol-1-yl)pyrazin-2-yl)-N-(2-hydroxy-2-methylpropyl)-4-methyl benzenesulfonamide], for which the half-maximal inhibitory concentration (IC50) in series [1] was 487 nM; in series [2], above 10000 nM; in series [3] it was above 10000 nM; in series [4], 2600 nM; in series [5], 920 nM; in [6], 7300 nM. For the same molecule, the figures for the IC50 in [7], in series [9] and in series [10] were 1530 nM, 81 nM and above 10000 nM, respectively. In series [8], the “Assay M RLM CI(int)” value was determined as 59 µL/min/mg.
On to `Cc1ccc(S(=O)(=O)NCCC(C)(C)O)cc1-c1cnc(N)c(-c2ccnn2C)n1` [Example 77, 3-(5-Amino-6-(1-methyl-1H-pyrazol-5-yl)pyrazin-2-yl)-N-(3-hydroxy-3-methylbutyl)-4-methylbenzenesulfonamide], for which the IC50 is 134 nM in series [1]; 5470 nM in series [2]; above 9100 nM in [3]; 230 nM in [4]; 300 nM in series [5]; 4200 nM in series [6]. Further, the IC50 in series [7] is 881 nM; in [9], 34 nM; in series [10], above 9100 nM. The “Assay M RLM CI(int)” value in series [8] turned out to be 45 µL/min/mg.
Regarding `Cc1ccc(S(=O)(=O)NCC(C)(C)O)cc1-c1cnc(N)c(-c2cc(C3CC3)no2)n1` [Example 79, 3-(5-Amino-6-(3-cyclopropylisoxazol-5-yl)pyrazin-2-yl)-N-(2-hydroxy-2-methylpropyl)-4-methylbenzenesulfonamide], the IC50 in [1] was determined as 53 nM; in series [2], 6500 nM; in series [3] it was 7600 nM; in series [4] it was 280 nM; in [5] it was 370 nM; in series [6] it was 1200 nM. Moreover, the IC50 in series [7] was 3210 nM; in series [9] it was 22 nM; in series [10], 3900 nM. Also, in series [8], the “Assay M RLM CI(int)” value came to 63 µL/min/mg.
`Cc1csc(-c2nc(-c3cc(S(=O)(=O)NCC(C)(C)O)ccc3C)cnc2N)n1` [Example 80, 3-(5-Amino-6-(4-methylthiazol-2-yl)pyrazin-2-yl)-N-(2-hydroxy-2-methylpropyl)-4-methylbenzenesulfonamide]: the IC50 was 98 nM in series [1]; above 10000 nM in [2]; above 10000 nM in series [3]; 250 nM in series [4]; 400 nM in series [5]; 1700 nM in series [6]. For the same molecule, the figures for the IC50 in [7], in series [9] and in series [10] were 2880 nM, 77 nM and 4550 nM, respectively. Further, the “Assay M RLM CI(int)” value in [8] worked out at 106 µL/min/mg.
Turning to `Cc1ccc(S(=O)(=O)NCC(C)(C)O)cc1-c1cnc(N)c(-c2nc(C3CC3)no2)n1` [Example 95, 3-(5-Amino-6-(3-cyclopropyl-1,2,4-oxadiazol-5-yl)pyrazin-2-yl)-N-(2-hydroxy-2-methylpropyl)-4-methylbenzenesulfonamide], the IC50 in [1] is 262 nM; in [2], 7400 nM; in series [3] it was above 9550 nM; in [4], 900 nM; in [5], 730 nM; in series [6], 4100 nM. Also, the IC50 in [7] was 1590 nM; in series [9], 36 nM; in series [10] it was above 9550 nM. For the same molecule, in series [8], the “Assay M RLM CI(int)” value stood at 53 µL/min/mg.
On to `Cc1ccc(S(=O)(=O)NC2(CO)CC2)cc1-c1cnc(N)c(-n2cncn2)n1` [Example 98, 3-(5-Amino-6-(1H-1,2,4-triazol-1-yl)pyrazin-2-yl)-N-(1-(hydroxymethyl)cyclopropyl)-4-methylbenzenesulfonamide], for which the 50% inhibitory concentration (IC50) in [1] was 200 nM; in series [2], above 9100 nM; in series [3], above 9100 nM; in [4], 1700 nM; in series [5] it was 310 nM; in series [6], 1400 nM. The results for the IC50 in series [7], in [9] and in series [10] were 4170 nM, 38 nM and 2500 nM, respectively. Moreover, the “Assay M RLM CI(int)” value in series [8] stood at 31 µL/min/mg.
For `Cc1ccc(S(=O)(=O)NCC(C)(C)CO)cc1-c1cnc(N)c(-c2cc(C3CC3)no2)n1` [Example 99, 3-(5-Amino-6-(3-cyclopropylisoxazol-5-yl)pyrazin-2-yl)-N-(3-hydroxy-2,2-dimethylpropyl)-4-methylbenzenesulfonamide], the IC50 stood at 59 nM in series [1]; 4950 nM in [2]; 2950 nM in [3]; 740 nM in series [4]; 140 nM in [5]; 1650 nM in [6]. Besides, the IC50 stood at 3520 nM in series [7], 14 nM in series [9] and 2700 nM in series [10]. The “Assay M RLM CI(int)” value in series [8] was determined as 74 µL/min/mg.
For the molecule `Cc1ccc(S(=O)(=O)NCCC(C)(C)O)cc1-c1cnc(N)c(-c2ccc(CO)s2)n1` [Example 119.35], the IC50 is 18 nM in series [1]; 3900 nM in series [2]; above 9100 nM in [3]; 80 nM in [4]; 70 nM in series [5]; 940 nM in series [6]. For the same molecule, the values for the half-maximal inhibitory concentration (IC50) in [7], in series [9] and in series [10] were 1020 nM, 13 nM and 740 nM, respectively. Moreover, the “Assay M RLM CI(int)” value in [8] was 78 µL/min/mg.
As for `Cc1ccc(S(=O)(=O)NCCC(C)(C)O)cc1-c1cnc(N)c(-c2cc[nH]n2)n1` [Example 119.42], the IC50 in [1] was 200 nM; in series [2], above 9100 nM; in [3], above 9100 nM; in series [4] it was 710 nM; in [5], 360 nM; in series [6], 2340 nM. In addition, the IC50 in series [7] is 2240 nM; in series [9], 69 nM; in [10], 880 nM. Besides, the “Assay M RLM CI(int)” value in series [8] was determined as 41 µL/min/mg.
With `Cc1ccc(S(=O)(=O)NCCC(C)(C)O)cc1-c1cnc(N)c(-c2ccc(C3CC3)s2)n1` [Example 119.46], the IC50 was 81 nM in series [1]; 6700 nM in series [2]; above 9100 nM in series [3]; 250 nM in series [4]; 70 nM in series [5]; 9190 nM in series [7]. Further, the figures for the IC50 in series [9] and in [10] were 110 nM and 610 nM, respectively. The “Assay M RLM CI(int)” value in series [8] came out at 122 µL/min/mg.
`Cc1ccc(S(=O)(=O)NCC(C)(F)F)cc1-c1cnc(N)c(-n2cncn2)n1` [Example 127.43]: the IC50 is 275 nM in series [1]; 8800 nM in [2]; above 10000 nM in [3]; 560 nM in [4]; 3400 nM in [5]; 1700 nM in [6]. The half-inhibitory concentration (IC50) worked out at 1640 nM in series [7], 95 nM in series [9] and 2900 nM in [10].
Take `Cc1ccc(S(=O)(=O)NCC2(O)COC2)cc1-c1cnc(N)c(-n2cncn2)n1` [Example 127.47]: the IC50 in series [1] was 266 nM; in [2] it was above 10000 nM; in series [3], above 10000 nM; in series [4] it was 1100 nM; in series [5] it was 3200 nM; in series [6] it was 2200 nM. For the same molecule, the results for the 50% inhibitory concentration (IC50) in series [7], in series [9] and in series [10] were 2180 nM, 60 nM and 6600 nM, respectively.
